Patent US4746678A, “Phenanthrene derivatives” (EGIS Gyoryszergyar, priority 1985, dated 1988)

Experiments:
wheat powdery mildew = assay: in vivo test against wheat powdery mildew; set-up: species or system "MV-4" wheat (host plant); details: identical test conditions
Method: In vivo tests are carried out against cereals powdery mildew.
In vivo activity is tested against wheat powdery mildew in a phytobox of the Conviron type, at 20° C., a relative humidity of 90% and a light intensity of 9000 lux. As host plant the elite propagating seed grain material of officially qualified "MV-4" wheat species is used. Wheat plants are cultivated in 6 days' periods, in cultivating dishes (diameter 11 cm) containing a 1:1 mixture of sand and perlite. Each dish contains 160 plants; at the beginning of the treatment the plants were 5-6 cm high. High dispersity grade aqueous suspensions or acetonic solutions of the test compound are prepared and 8 ml of each suspension or solution, respectively, are applied onto the plants by means of a spraying apparatus operated by gaseous nitrogen. Inoculation is carried out 24 days after the fungicidal treatment. The test units are placed in three replicates and in random block arrangement in the phytotron. The rate of infectedness is determined on the 8th day after inoculation. Numerical evaluation is accomplished on the basis of the method described by Hinfner and Papp by observing separately 50-60 plants.
The results are expressed as ED50 and ED90 values of the test compounds being calculated from the co-relation of effect and concentration by means of mathematical-biometrical methods. […]

[1] = test system: bean rust (Uromyces apperdiculatus); assay: in vivo test on "pinto" bean against bean rust; set-up: species or system "pinto" bean (host plant); details: spray at a concentration of 500 ppm; symptoms 7-8 days after infection
Method: A further test is carried out on "pinto" bean species against bean rust (Uromyces apperdiculatus). Into each cultivating dish three seeds are sown in a 1:1:0.035 mixture of sand, perlite and super compost. Two-leave staged bean plants subjected to 7-9 days' glass house pre-cultivation are treated with the test compound and the treated plants are inoculated. The concentration of the spore suspension amounts to 0.1 g/10 ml and 2.5 ml of spore suspension are used for each cultivating dish. After inoculation the plants are incubated at 20° C. under a relative moisture content of 100% for 48 hours. The symptoms manifest themselves 7-8 days after infection. Three replicates are used; untreated control treatment is also carried out and the commercial product "Dithane M 45" serves as reference.

Row | Structure (SMILES) | activity relative to the most efficient novel compounds (products of Examples 7 and 8) (wheat powdery mildew) | inhibition of bean rust infection [1] [%]
1 | C/C=C/C(=O)Oc1c(C(C)CCCCCC)cc([N+](=O)[O-])cc1[N+](=O)[O-] (stereo not shown) [6-(1-methyl-heptyl-2,4-dinitro-phenyl-crotonate)] | lower activity | –
2 | CNC(=O)ON=C1C(=O)c2ccccc2-c2ccccc21 [Example 8, 9,10-Phenanthrene-dione-9-(methylaminocarbonyl)-oxime] | – | 100
3 | CCCCNC(=O)n1c(NC(=O)OC)nc2ccccc21 [Reference compound, methyl-1-(n-butylcarbamoyl)-2-benzimidazole-carbamate] | lower activity | –
4 | CCCCNC(=O)ON=C1C(=O)c2ccccc2-c2ccccc21 [Example 7, 9,10-phenanthrene-dione-9-(n-butyl-aminocarbonyl)-oxime] | – | 100
